Source: ChEMBL document CHEMBL3396988, “Structure-based design of inhibitors of coagulation factor XIa with novel P1 moieties” (Bioorg Med Chem Lett, 2015)

Experiments:
Coagulation factor XI [1] = target: T1, Coagulation factor XI (Homo sapiens, UniProt P03951); experiment: Inhibition of human coagulation factor 11a at 25 degC
[2] = Half life in human liver microsomes; type: ADME
Trypsin = Trypsin (Homo sapiens, UniProt P07477+P07478+P35030); experiment: Inhibition of human trypsin at 25 degC; type: protein assay
[3] = Volume of distribution at steady state in dog at 0.5 mg/kg, po or 0.4 mg/kg, iv administered in cassette format; type: ADME, organism-based, Canis lupus familiaris; details: in vivo, read-out: Vdss
[4] = Permeability of the compound at pH 7.4 by PAMPA method; type: ADME; details: read-out: permeability
[5] = Clearance in dog at 0.5 mg/kg, po or 0.4 mg/kg, iv administered in cassette format; type: ADME, organism-based, Canis lupus familiaris; details: in vivo
[6] = Half life in dog at 0.5 mg/kg, po or 0.4 mg/kg, iv administered in cassette format; type: ADME, organism-based, Canis lupus familiaris; details: in vivo
[7] = Oral bioavailability in dog at 0.5 mg/kg administered in cassette format; type: ADME, organism-based, Canis lupus familiaris; details: in vivo
Plasminogen = Plasminogen (Homo sapiens, UniProt P00747); experiment: Inhibition of plasmin (unknown origin)
Chain of Plasminogen (P00747 97-580 limits assumed): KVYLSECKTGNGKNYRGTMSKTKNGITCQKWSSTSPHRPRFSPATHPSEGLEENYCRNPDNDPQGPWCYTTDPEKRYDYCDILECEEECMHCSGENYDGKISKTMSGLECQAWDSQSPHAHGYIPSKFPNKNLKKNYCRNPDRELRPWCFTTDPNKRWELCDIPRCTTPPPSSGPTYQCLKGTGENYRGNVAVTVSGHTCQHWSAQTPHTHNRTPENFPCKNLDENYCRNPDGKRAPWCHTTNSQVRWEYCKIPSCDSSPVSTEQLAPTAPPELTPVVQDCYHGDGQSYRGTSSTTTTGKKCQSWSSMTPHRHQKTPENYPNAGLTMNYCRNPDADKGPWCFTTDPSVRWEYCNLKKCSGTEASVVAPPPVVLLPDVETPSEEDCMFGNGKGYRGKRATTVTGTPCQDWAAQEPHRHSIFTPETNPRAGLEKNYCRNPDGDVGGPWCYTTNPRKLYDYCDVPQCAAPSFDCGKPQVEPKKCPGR
Chain of Plasminogen (P00747 581-810 limits assumed): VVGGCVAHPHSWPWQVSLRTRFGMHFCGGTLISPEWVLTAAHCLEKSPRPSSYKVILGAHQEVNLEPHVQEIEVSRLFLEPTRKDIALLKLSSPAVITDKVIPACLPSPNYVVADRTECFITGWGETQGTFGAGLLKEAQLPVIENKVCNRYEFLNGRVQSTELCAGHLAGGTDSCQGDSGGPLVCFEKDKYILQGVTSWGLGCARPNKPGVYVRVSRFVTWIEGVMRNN

[8] = Inhibition of chymotrypsin (unknown origin); set-up: species or system Homo sapiens
Coagulation factor VII = target: T2, Coagulation factor VII (Homo sapiens, UniProt P08709); experiment: Inhibition of coagulation factor 7a (unknown origin)
T2 sequence (P08709 whole entry): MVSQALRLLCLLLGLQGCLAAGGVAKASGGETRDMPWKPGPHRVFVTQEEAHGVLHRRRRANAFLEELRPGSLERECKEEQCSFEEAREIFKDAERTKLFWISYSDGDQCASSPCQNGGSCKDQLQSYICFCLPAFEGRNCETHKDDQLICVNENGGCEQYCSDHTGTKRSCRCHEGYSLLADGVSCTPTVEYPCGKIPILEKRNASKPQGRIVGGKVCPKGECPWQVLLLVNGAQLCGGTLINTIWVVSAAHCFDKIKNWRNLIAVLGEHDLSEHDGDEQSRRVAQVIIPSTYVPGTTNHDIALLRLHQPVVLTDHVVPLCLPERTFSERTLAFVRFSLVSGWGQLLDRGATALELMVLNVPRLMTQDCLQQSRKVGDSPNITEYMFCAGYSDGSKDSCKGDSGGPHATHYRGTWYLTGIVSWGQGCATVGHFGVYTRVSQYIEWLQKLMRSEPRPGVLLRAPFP

Coagulation factor IX = Coagulation factor IX (Homo sapiens, UniProt P00740); experiment: Inhibition of coagulation factor 9a (unknown origin)
Chain of Coagulation factor IX (P00740 47-191 limits assumed): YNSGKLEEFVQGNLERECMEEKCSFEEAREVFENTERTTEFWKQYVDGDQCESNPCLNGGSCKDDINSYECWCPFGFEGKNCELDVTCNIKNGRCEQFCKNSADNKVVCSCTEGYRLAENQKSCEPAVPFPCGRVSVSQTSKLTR
Chain of Coagulation factor IX (P00740 227-461 limits assumed): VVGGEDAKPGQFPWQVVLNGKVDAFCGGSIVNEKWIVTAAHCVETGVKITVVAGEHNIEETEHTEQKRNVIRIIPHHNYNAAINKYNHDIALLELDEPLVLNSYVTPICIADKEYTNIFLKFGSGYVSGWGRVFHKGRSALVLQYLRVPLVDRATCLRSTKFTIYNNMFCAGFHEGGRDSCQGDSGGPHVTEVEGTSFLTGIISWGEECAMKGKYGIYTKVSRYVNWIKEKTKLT

Coagulation factor X = Coagulation factor X (Homo sapiens, UniProt P00742); experiment: Inhibition of coagulation factor 10a (unknown origin)
Chain of Coagulation factor X (P00742 41-179 limits assumed): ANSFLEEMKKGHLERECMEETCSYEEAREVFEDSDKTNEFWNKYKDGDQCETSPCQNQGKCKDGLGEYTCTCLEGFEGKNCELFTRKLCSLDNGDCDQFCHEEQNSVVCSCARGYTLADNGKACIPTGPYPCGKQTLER
Chain of Coagulation factor X (P00742 235-488 limits assumed): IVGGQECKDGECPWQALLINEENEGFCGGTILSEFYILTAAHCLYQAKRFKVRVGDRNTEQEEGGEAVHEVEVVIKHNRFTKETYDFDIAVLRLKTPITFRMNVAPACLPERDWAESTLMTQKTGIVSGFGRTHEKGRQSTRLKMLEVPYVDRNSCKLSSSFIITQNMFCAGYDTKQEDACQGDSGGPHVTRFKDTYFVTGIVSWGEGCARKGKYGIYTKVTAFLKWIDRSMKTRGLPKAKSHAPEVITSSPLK

Plasma kallikrein = Plasma kallikrein (Homo sapiens, UniProt P03952); experiment: Inhibition of plasma kallikrein (unknown origin)
Chain of Plasma kallikrein (P03952 20-390 limits assumed): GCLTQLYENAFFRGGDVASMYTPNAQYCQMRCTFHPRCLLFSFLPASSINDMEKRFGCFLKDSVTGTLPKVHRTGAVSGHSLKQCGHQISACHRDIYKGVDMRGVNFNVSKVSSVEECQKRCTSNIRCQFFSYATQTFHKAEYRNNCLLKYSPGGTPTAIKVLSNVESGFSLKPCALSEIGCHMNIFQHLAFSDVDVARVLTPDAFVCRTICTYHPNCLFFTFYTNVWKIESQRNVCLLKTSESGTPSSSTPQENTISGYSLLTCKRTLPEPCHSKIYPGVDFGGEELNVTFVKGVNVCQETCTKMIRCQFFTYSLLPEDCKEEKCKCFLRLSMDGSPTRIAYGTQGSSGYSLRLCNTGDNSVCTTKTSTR
Chain of Plasma kallikrein (P03952 391-638 limits assumed): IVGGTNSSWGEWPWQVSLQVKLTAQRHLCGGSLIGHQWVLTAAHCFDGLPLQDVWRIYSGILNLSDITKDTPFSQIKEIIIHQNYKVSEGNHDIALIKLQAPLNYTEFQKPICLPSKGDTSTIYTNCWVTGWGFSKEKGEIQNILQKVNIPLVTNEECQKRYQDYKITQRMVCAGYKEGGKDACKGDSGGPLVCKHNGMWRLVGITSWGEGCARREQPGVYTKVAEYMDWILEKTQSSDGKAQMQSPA

Kallikrein-1 = Kallikrein-1 (Homo sapiens, UniProt P06870); experiment: Inhibition of tissue kallikrein (unknown origin)
Chain of Kallikrein-1 (P06870 whole entry): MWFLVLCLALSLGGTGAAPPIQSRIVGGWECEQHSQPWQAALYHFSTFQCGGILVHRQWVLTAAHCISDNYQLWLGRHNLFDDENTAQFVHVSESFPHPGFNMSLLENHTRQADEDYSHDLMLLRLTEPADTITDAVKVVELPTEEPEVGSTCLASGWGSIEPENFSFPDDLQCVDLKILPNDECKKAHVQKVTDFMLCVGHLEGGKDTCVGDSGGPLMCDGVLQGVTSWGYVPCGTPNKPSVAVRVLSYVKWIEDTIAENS

[9] = target: Tissue-type plasminogen activator (Homo sapiens, UniProt P00750); experiment: Inhibition of TPA (unknown origin)
Chain of Tissue-type plasminogen activator (P00750 whole entry): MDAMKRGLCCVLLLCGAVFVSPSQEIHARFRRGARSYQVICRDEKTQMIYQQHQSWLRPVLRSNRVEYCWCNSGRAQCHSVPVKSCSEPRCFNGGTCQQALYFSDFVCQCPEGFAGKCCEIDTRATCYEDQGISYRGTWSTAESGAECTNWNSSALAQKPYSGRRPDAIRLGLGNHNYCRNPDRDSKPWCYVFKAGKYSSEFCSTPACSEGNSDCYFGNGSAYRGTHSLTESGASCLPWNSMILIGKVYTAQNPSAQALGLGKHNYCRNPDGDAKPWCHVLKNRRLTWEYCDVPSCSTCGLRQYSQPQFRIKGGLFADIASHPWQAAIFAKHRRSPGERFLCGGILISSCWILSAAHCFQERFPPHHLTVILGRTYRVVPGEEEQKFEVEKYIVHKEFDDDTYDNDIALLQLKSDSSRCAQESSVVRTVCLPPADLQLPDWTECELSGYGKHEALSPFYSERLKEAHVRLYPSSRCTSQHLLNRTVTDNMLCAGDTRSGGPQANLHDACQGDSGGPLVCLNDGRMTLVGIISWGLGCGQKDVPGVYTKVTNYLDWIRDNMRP

Prothrombin = Prothrombin (Homo sapiens, UniProt P00734); experiment: Inhibition of thrombin (unknown origin)
Plasma = experiment: Anticoagulant activity in human plasma assessed as compound level causing 1.5 times increase in activated partial […] time; type: functional
Coagulation factor XI [10] = target: T1, Coagulation factor XI; experiment: Inhibition of human coagulation factor 11a at 37 degC
[11] = Half life in dog at 1 mg/kg, po or 0.4 mg/kg, iv administered in discrete format; type: ADME, organism-based, Canis lupus familiaris; details: in vivo
[12] = Clearance in dog at 1 mg/kg, po or 0.4 mg/kg, iv administered in discrete format; type: ADME, organism-based, Canis lupus familiaris; details: in vivo
[13] = Volume of distribution at steady state in dog at 1 mg/kg, po or 0.4 mg/kg, iv administered in discrete format; type: ADME, organism-based, Canis lupus familiaris; details: in vivo, read-out: Vdss
[14] = Oral bioavailability in dog at 1 mg/kg administered in discrete format; type: ADME, organism-based, Canis lupus familiaris; details: in vivo

T1 sequence (P03951 19-387 limits assumed): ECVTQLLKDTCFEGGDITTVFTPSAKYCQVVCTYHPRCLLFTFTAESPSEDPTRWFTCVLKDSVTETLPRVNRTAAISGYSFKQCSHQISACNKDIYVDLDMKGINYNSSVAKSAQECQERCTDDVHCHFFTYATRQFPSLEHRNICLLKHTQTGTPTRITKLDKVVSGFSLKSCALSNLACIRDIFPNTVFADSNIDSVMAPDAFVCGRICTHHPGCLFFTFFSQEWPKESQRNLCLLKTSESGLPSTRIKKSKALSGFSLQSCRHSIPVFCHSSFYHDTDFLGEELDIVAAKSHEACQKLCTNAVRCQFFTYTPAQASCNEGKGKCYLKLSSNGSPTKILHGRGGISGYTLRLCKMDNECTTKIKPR
T1 sequence (P03951 388-625 limits assumed): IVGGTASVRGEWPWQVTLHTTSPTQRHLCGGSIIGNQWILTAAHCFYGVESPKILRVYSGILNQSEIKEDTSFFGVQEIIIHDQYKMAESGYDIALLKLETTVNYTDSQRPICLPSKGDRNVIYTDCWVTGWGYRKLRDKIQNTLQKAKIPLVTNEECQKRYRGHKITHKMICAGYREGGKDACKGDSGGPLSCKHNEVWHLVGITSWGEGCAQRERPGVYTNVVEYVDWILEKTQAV

Compound	Ki (Coagulation factor XI [1])	Ki (Trypsin)	Vd [3]	clearance [5]	half-life [6]	further results
Nc1n[nH]c2cc(-c3nc([C@H](Cc4ccccc4)NC(=O)NCc4cc(Cl)ccc4-n4cccn4)[nH]c3Cl)ccc12	450 nM					half-life [2]: < 0.0167 h
Nc1n[nH]c2cc(-c3nc([C@H](Cc4ccccc4)NC(=O)c4ccc5c(N)noc5c4)[nH]c3Cl)ccc12	125 nM	> 5000 nM				
Nc1n[nH]c2cc(-c3nc([C@H](Cc4ccccc4)NC(=O)NCc4cccc(Cl)c4F)[nH]c3Cl)ccc12	57 nM					
Nc1nccc2cc(C(=O)N[C@@H](Cc3ccccc3)c3nc(-c4ccc5c(N)n[nH]c5c4)c(Cl)[nH]3)ccc12	19 nM	380 nM	1 L/kg	49.5 mL/min/kg	0.14 h	Papp [4]: 3.8 ×10⁻⁶ cm/s; bioavailability [7]: < 2%
Nc1n[nH]c2cc(-c3nc([C@H](Cc4ccccc4)NC(=O)/C=C/c4cc(Cl)ccc4-n4cnnn4)[nH]c3Cl)ccc12	1.2 nM	> 6200 nM	0.8 L/kg	16 mL/min/kg	2.2 h	Ki (Plasminogen): > 24000 nM; Ki [8]: 660 nM; Ki (Coagulation factor VII): > 13000 nM; Ki (Coagulation factor IX): > 35000 nM; Ki (Coagulation factor X): > 1000 nM; Ki (Plasma kallikrein): 41 nM; Ki (Kallikrein-1): 1200 nM; Ki [9]: 19000 nM; Ki (Prothrombin): > 13000 nM; bioavailability [7]: 0%; Activity (Plasma): 3 µM
NCC12CCC(C(=O)N[C@@H](Cc3ccccc3)c3nc(-c4ccc5c(N)n[nH]c5c4)c(Cl)[nH]3)(CC1)CC2	1.49 nM	1040 nM				
Cc1ccc(C(=O)N[C@@H](Cc2ccccc2)c2nc(-c3ccc4c(N)n[nH]c4c3)c(Cl)[nH]2)cc1	390 nM	> 5000 nM				
Nc1n[nH]c2cc(-c3nc([C@H](Cc4ccccc4)NC(=O)[C@H]4CC[C@H](C(N)=O)CC4)[nH]c3Cl)ccc12	2900 nM	> 5000 nM				
Nc1n[nH]c2cc(-c3nc([C@H](Cc4ccccc4)NC(=O)c4cc(Cl)ccc4F)[nH]c3Cl)ccc12	530 nM	> 5000 nM				
COC(=O)Nc1ccc(-c2nc([C@H](Cc3ccccc3)NC(=O)/C=C/c3cc(Cl)ccc3-n3cnnn3)[nH]c2Cl)cc1	2.7 nM		1.6 L/kg	9 mL/min/kg	3.1 h	half-life [2]: 0.55 h; bioavailability [7]: 3%; Activity (Plasma): 5.3 µM
C[C@H]1CC[C@H](C(=O)N[C@@H](Cc2ccccc2)c2nc(-c3ccc4c(N)n[nH]c4c3)c(Cl)[nH]2)CC1	68 nM	> 6000 nM	0.9 L/kg	15.4 mL/min/kg	1.5 h	Papp [4]: 0.46 ×10⁻⁶ cm/s; bioavailability [7]: < 1%
COC(=O)Nc1ccc(-c2c[nH]c([C@H](Cc3ccccc3)NC(=O)/C=C/c3cc(Cl)ccc3-n3cnnn3)n2)cc1	6.7 nM	> 6200 nM	3.4 L/kg		2.4 h	Ki (Plasminogen): > 41000 nM; Ki [8]: 1300 nM; Ki (Coagulation factor VII): > 13000 nM; Ki (Coagulation factor IX): > 60000 nM; Ki (Coagulation factor X): 1500 nM; Ki (Plasma kallikrein): 240 nM; Ki (Kallikrein-1): > 30000 nM; Ki [9]: 17000 nM; Ki (Prothrombin): > 15000 nM; bioavailability [7]: 10.4%; Activity (Plasma): 8.6 µM
COC(=O)Nc1ccc(-c2nc([C@H](Cc3ccccc3)NC(=O)CCc3cc(Cl)ccc3-n3cnnn3)[nH]c2Cl)cc1	1.9 nM		4.4 L/kg	38.3 mL/min/kg	2.6 h	Activity (Plasma): 5.2 µM
Nc1n[nH]c2cc(C(=O)N[C@@H](Cc3ccccc3)c3nc(-c4ccc5c(N)n[nH]c5c4)c(Cl)[nH]3)ccc12	58 nM	1400 nM				
Nc1nccc2c1CCC(C(=O)N[C@@H](Cc1ccccc1)c1nc(-c3ccc4c(N)n[nH]c4c3)c(Cl)[nH]1)C2 (stereo in doubt; 6)	2.15 nM	1430 nM				
Nc1n[nH]c2cc(-c3nc([C@H](Cc4ccccc4)NC(=O)NCc4cccc(Cl)c4)[nH]c3Cl)ccc12	54 nM					
Nc1n[nH]c2cc(-c3c[nH]c([C@H](Cc4ccccc4)NC(=O)/C=C/c4cc(Cl)ccc4-n4cnnn4)n3)ccc12						Ki (Coagulation factor XI [10]): 5 nM; Activity (Plasma): 4 µM
Nc1n[nH]c2cc(-c3nc([C@H](Cc4ccccc4)NC(=O)NCc4c(F)ccc(Cl)c4F)[nH]c3Cl)ccc12	23 nM					

Compound	Ki (Coagulation factor XI [1])	Ki (Trypsin)	Vd [3]	clearance [5]	half-life [6]	further results
Nc1nccc2c1CCC(C(=O)N[C@@H](Cc1ccccc1)c1nc(-c3ccc4c(N)n[nH]c4c3)c(Cl)[nH]1)C2 (single isomer, unassigned; diastereomer B)	2.5 nM	360 nM				
COC(=O)Nc1ccc(-c2nc([C@H](Cc3ccccc3)NC(=O)NCc3cc(Cl)ccc3-n3cnnn3)[nH]c2Cl)cc1	3.4 nM		2.8 L/kg	34.5 mL/min/kg	2.8 h	half-life [2]: < 0.0167 h; Activity (Plasma): 5.6 µM
COc1cc(F)c(C(=O)N[C@@H](Cc2ccccc2)c2nc(-c3ccc4c(N)n[nH]c4c3)c(Cl)[nH]2)c(F)c1	65 nM	> 6000 nM	1.3 L/kg	15.2 mL/min/kg	1.2 h	Papp [4]: 23.4 ×10⁻⁶ cm/s; bioavailability [7]: 49%
Nc1nccc2c1CCC(C(=O)N[C@@H](Cc1ccccc1)c1nc(-c3ccc4c(N)n[nH]c4c3)c(Cl)[nH]1)C2 (single isomer, unassigned; diastereomer A)	2.6 nM	2800 nM	2.8 L/kg	34.8 mL/min/kg	2.3 h	Papp [4]: 0.15 ×10⁻⁶ cm/s; bioavailability [7]: < 2%
Cc1ccc(C(=O)N[C@@H](Cc2ccccc2)c2nc(-c3ccc4c(N)n[nH]c4c3)c(Cl)[nH]2)c(F)c1	200 nM	> 5000 nM	1.9 L/kg	9 mL/min/kg	1.8 h	Papp [4]: 54.7 ×10⁻⁶ cm/s; bioavailability [7]: 30%
Cc1ccc(Cl)cc1CNC(=O)N[C@@H](Cc1ccccc1)c1nc(-c2ccc3c(N)n[nH]c3c2)c(Cl)[nH]1	53 nM					
NCc1ccc(Cl)cc1CNC(=O)N[C@@H](Cc1ccccc1)c1nc(-c2ccc3c(N)n[nH]c3c2)c(Cl)[nH]1	5.8 nM					Activity (Plasma): 3.9 µM
NCc1ccc(C(=O)N[C@@H](Cc2ccccc2)c2nc(-c3ccc4c(N)n[nH]c4c3)c(Cl)[nH]2)c(F)c1	1.03 nM	58 nM				
Nc1n[nH]c2cc(-c3nc([C@H](Cc4ccccc4)NC(=O)NCc4cc(Cl)ccc4-n4cncn4)[nH]c3Cl)ccc12	46 nM					half-life [2]: < 0.0167 h; Activity (Plasma): 34 µM
NC[C@H]1CC[C@H](C(=O)N[C@@H](Cc2ccccc2)c2nc(-c3ccc4c(N)n[nH]c4c3)c(Cl)[nH]2)CC1	0.31 nM					Ki (Plasminogen): 8400 nM; Ki [8]: > 20800 nM; half-life [11]: 1.88 h; Papp [4]: 0.03 ×10⁻⁶ cm/s; clearance [12]: 11.2 mL/min/kg; Ki (Kallikrein-1): 650 nM; Ki [9]: > 22000 nM; Vd [13]: 0.92 L/kg; bioavailability [14]: 3.6%
Nc1n[nH]c2cc(-c3nc([C@H](Cc4ccccc4)NC(=O)NCc4cc(Cl)ccc4F)[nH]c3Cl)ccc12	31 nM					
COc1ccc(C(=O)N[C@@H](Cc2ccccc2)c2nc(-c3ccc4c(N)n[nH]c4c3)c(Cl)[nH]2)c(F)c1	280 nM	> 6000 nM				
NCc1ccc(C(=O)N[C@@H](Cc2ccccc2)c2nc(-c3ccc4c(N)n[nH]c4c3)c(Cl)[nH]2)cc1	1.16 nM	59 nM				
Nc1n[nH]c2cc(-c3nc([C@H](Cc4ccccc4)NC(=O)NCc4cc(Cl)ccc4-n4cnnn4)[nH]c3Cl)ccc12	1.5 nM		1.4 L/kg	31.2 mL/min/kg	2.1 h	half-life [2]: < 0.0167 h; bioavailability [7]: 0%; Activity (Plasma): 1.8 µM
NC(=O)c1ccc(C(=O)N[C@@H](Cc2ccccc2)c2nc(-c3ccc4c(N)n[nH]c4c3)c(Cl)[nH]2)cc1	310 nM	> 5000 nM	1.5 L/kg	12.5 mL/min/kg	1.4 h	bioavailability [7]: 26%
Nc1n[nH]c2cc(-c3nc([C@H](Cc4ccccc4)NC(=O)NCc4cc(Cl)ccc4C(F)(F)F)[nH]c3Cl)ccc12	240 nM					
COc1ccc(Cl)cc1CNC(=O)N[C@@H](Cc1ccccc1)c1nc(-c2ccc3c(N)n[nH]c3c2)c(Cl)[nH]1	75 nM					
